Measured values taken from patent US12636368B2, “Ionizable lipids for nucleic acid delivery” (Global Life Sciences Solutions Canada ULC, priority 2019, dated 2026).

Legend:
C56BL/6 mice = experiment: hEPO expression in mice after i.v. EPO mRNA LNPs; type: in vivo; conditions: for hEPO protein level compared with MC3: FIG. 9, 5-moU EPO mRNA, LM02, N/P 6, 0.5 mg/Kg, 6 h; for protein expression in vivo compared with MC3: summary, Table 7 and Figures
Protocol: C56BL/6 mice were administered i.v doses of 0.5, 1 or 3 mg/Kg of recombinant human EPO-encoded mRNA LNPs containing ionizable lipids MC3, PNI 76, PNI 121 and PNI 127 using the LM02 composition at N/P 6; hEPO protein was measured using Quantikine® IVD® ELISA Human Erythropoietin Immunoassay protocol. Results for the 0.5 mg/Kg dosage are shown in the scatter plot of FIG. 7. Results for the 1 and 3 mg/Kg doses are shown in FIG. 8 as scatter plots of hEPO expression levels at 6 h (left) and 24 h (right).
In another study, 5-moU EPO mRNA encapsulated in LM02 LNP at an N/P ratio of 6 and a dose of 0.5 mg/Kg comprising a variety of […] ionizable lipids (PNI 336, PNI 534, PNI 535, PNI 342, PNI 321, PNI 532, PNI 538, PNI 541, PNI 325, PNI 328, PNI 329, PNI 539, PNI 540, PNI 127); along with MC3 as a control, were administered. hEPO protein was measured using ProteinSimple® Ella platform, and the rhEPO microfluidic cartridges provided by the manufacturer.
Blood from mice treated with hEPO mRNA LNP was analyzed using an automated ELISA platform “ELLA”, using Simplex™ antibody panel cartridges. Human-specific EPO and mouse-specific IL-5, IL-6, TNF-α, and IFN-γ were measured (reagents from Bio-techne). Briefly, 50 μL of sample reagent (diluted biological sample, quality control, or calibration point sample) were aliquoted into each sample inlet, and 1 mL of wash buffer was added into corresponding inlets on the cartridge. All immunoassay operations (including prime system, flow samples and split them into channels, sample incubation, wash, rehydrate and flow secondary antibody, wash, rehydrate and flow streptavidin dye conjugate, incubate, wash, scan) were processed automatically. Raw signal levels (relative fluorescence units, RFUs), mean signal values, standard deviation, and coefficient of variance (CV) for each glass nanoReactor (GNR) value are provided. RFU values are automatically backfit by the ELLA to produce an analyte concentration per analyte/sample using the manufacturer given calibration methodology.
Reagents were acquired from Quantikine, Minneapolis, MN. The assay was performed as directed on the Quantikine® IVD® ELISA Human Erythropoietin Immunoassay protocol REF DEP00 Package Insert. Briefly; Sera samples of 6 h, and/or 24 h post intravenous administration of 0.5, 1 or 3 mg/kg dose of EPO-encoded mRNA were analyzed for EPO expression analysis, and expressed as mIU/mL. To an EPO antibody pre-coated 96-well microplate, provided by the manufacturer, standards, appropriately diluted sera, and the Horseradish peroxidase (HRP)-conjugated rabbit anti-EPO polyclonal antibody and TMB (Tetramethylbenzidine) as the substrate were added and incubated for 20 minutes. Stop solution (Sulfuric Acid) was added to the wells and the plate was read at 450 nm and the concentration of EPO was calculated. The amount of colour generated is directly proportional to the amount of the conjugate bound to EPO antibody, which in turn is directly proportional to the amount of EPO in the specimen or standard. A standard curve was generated by plotting absorbance versus concentration of provided standards. Quantikine® Human Serum Controls (CEP 01, CEP 03) were used for internal controls.

[1] = system: isolated primary human T cells; experiment: CD19 CAR expression in primary human T cells by mRNA-LNPs; type: cell-based; conditions: FIG. 11; CT10, N/P 8, 48 h
Protocol: MRNA containing IL with CT10 composition at N/P 8 was assayed after in vitro exposure. The CAR vector pcDNA3.1 anti-CD19-h(BB Lambda)-EGFP-2nd-CAR (T7 Mut) 7661 bp was purchased from Creative BioLabs, NY, USA.
T cells were isolated from whole blood using a negative isolation procedure and T cell activation, and expansion was carried out by triple activation in ImmunoCult™ Human T Cell Expansion Media as described supra.

primary human T cells = experiment: EPO ELISA after EPO mRNA LNP treatment of primary human T cells; type: cell-based
Protocol: Reagents were acquired from Quantikine, Minneapolis, MN. The assay was performed as directed on the Quantikine® IVD® ELISA Human Erythropoietin Immunoassay protocol. REF DEP00 Package Insert. Briefly; primary human T cells were isolated from fresh whole blood using a negative selection protocol and activated using a triple activator. Seven days post-activation, T cells were dosed with mRNA LNPs encoding EPO at 2 pg mRNA per 500,000 cells and N/P 10. Quantikine® Human Serum Controls were used. After 48 hours of treatment with mRNA LNPs the T cells were harvested and lysed for cytosolic EPO and media supernatant was sampled for secreted EPO. Table 5 includes the data of FIG. 6 as well as the fold increase of EPO for PNI 76 and 121 versus MC3.

human T cells = experiment: eGFP ELISA after eGFP mRNA LNP treatment of human T cells; type: cell-based; conditions: FIG. 3; CT10, N/P 10, 10 days post-activation, 48 hours
Protocol: Reagents were acquired from Abcam, Cambridge, UK unless otherwise stated. […] The assay was performed as directed by the eGFP SimpleStep ELISA® Kit protocol. Briefly; frozen human T cells, previously isolated from fresh human whole blood using a negative selection protocol, were thawed and activated using a triple activator. […] After 48 hours of treatment with mRNA LNPs the T cells were harvested and lysed for total eGFP content.
In order to expose the isolated and activated T cells (Day 0) to the formulated mRNA, 2 ug of CleanCap™ eGFP (Trilink Biotechnologies, San Diego, CA) mRNA-containing LNP was added to 500,000 T cells in 1 mL of complete T cell media, with 1 ug/mL of Recombinant Human ApoE4 (“ApoE”) (Peprotech Inc., Montreal, Canada).
Frozen human T cells, previously isolated from fresh human whole blood using a negative selection protocol, were thawed and activated using a triple activator. At 10 days post-activation, T cells were dosed with CT10 mRNA LNPs LNP comprising DLin-MC3-DMA, PNI 76, PNI 119, PNI 120, PNI 121, and PNI 122 encoding eGFP at 2 pg mRNA per 500,000 cells and N/P 10. Protein expression was measured after 48 hours by eGFP ELISA.

Row | SMILES | hEPO protein level compared with MC3 (C56BL/6 mice) | CD19 CAR expression compared with PBS [1] | protein expression in vivo compared with MC3 (C56BL/6 mice) | EPO expression compared with MC3 (primary human T cells; FIG. 6, N/P 10, 48 hours) | EPO Fold Change Relative to MC3 (primary human T cells; Table 5) | EPO concentration (mIU/mL) (primary human T cells; Table 5, EPO mRNA LNPs, 2 pg mRNA per 500,000 cells, N/P 10, 48 hours) | eGFP expression by eGFP ELISA compared with MC3 (human T cells)
1 | CCCCC/C=C\C/C=C\CCCCCCCC(=O)O[C@@H]1[C@@H](OC(=O)CCCCCCC/C=C\C/C=C\CCCCC)CO[C@@H]1COC(=O)CCCN1CCCC1 (racemic) [PNI 539] | compare well to MC3 | – | – | – | – | – | –
2 | CCCCC/C=C\C/C=C\CCCCCCCC(=O)O[C@@H]1[C@@H](OC(=O)CCCCCCC/C=C\C/C=C\CCCCC)CO[C@@H]1COC(=O)C1CCN(C)C1 (mixture of isomers) [PNI 328] | compare well to MC3 | greater than PBS | equivalent to MC3 | – | – | – | –
3 | CCCCC/C=C\C/C=C\CCCCCCCC(=O)O[C@@H]1[C@@H](OC(=O)CCCCCCC/C=C\C/C=C\CCCCC)CO[C@@H]1COC(=O)C1(C)CCN(C)C1 (mixture of isomers) [PNI 329] | compare well to MC3 | greater than PBS | equivalent to MC3 | – | – | – | –
4 | CCCCC/C=C\C/C=C\CCCCCCCC(=O)O[C@@H]1[C@@H](OC(=O)CCCCCCC/C=C\C/C=C\CCCCC)CO[C@@H]1COC(=O)CCCN(C)C (racemic) [PNI 121] | – | – | equivalent to MC3 | higher than those containing MC3 | 1.86 | 1009.0 | greater than that of MC3
